The subject of the assay is BDF1 mice, L1210 leukemia sc, survival T/C. The assay can be described thus: NCI In Vivo Anticancer Drug Screen. Data for tumor model L1210 Leukemia (subcutaneous) in B6D2F1 (BDF1) mice. Particulars: higher = longer survival. The method in brief:
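Mice carrying transplanted tumors received test compounds, and survival or tumor size was measured. Values are the treated-group measurement (T) divided by that of the vehicle-treated control group (C).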

Setting [1] is: endpoint: median survival time, dose: 3.0 mg/kg/injection, schedule: Q01DX Z (sc), vehicle: saline.
The mark [2] stands for this setting: endpoint: median survival time, dose: 5.0 mg/kg/injection, schedule: Q01DX Z (sc), vehicle: saline.
The mark [3] stands for this setting: endpoint: median survival time, dose: 14.0 mg/kg/injection, schedule: Q01DX Z (sc), vehicle: saline.
The mark [4] stands for this setting: endpoint: median survival time, dose: 23.0 mg/kg/injection, schedule: Q01DX Z (sc), vehicle: saline.
Setting [5] is: endpoint: median survival time, dose: 39.0 mg/kg/injection, schedule: Q01DX Z (sc), vehicle: methylcellulose (MC).
[6] abbreviates: endpoint: median survival time, dose: 180.0 mg/kg/injection, schedule: Q01DX Z (sc), vehicle: methylcellulose (MC).
Where [7] appears, read: endpoint: median survival time, dose: 300.0 mg/kg/injection, schedule: Q01DX Z (sc), vehicle: methylcellulose (MC).
The mark [8] stands for this setting: endpoint: median survival time, dose: 108.0 mg/kg/injection, schedule: Q01DX Z (sc), vehicle: methylcellulose (MC).
[9] abbreviates: endpoint: median survival time, dose: 65.0 mg/kg/injection, schedule: Q01DX Z (sc), vehicle: methylcellulose (MC).
Setting [10] is: endpoint: median survival time, dose: 500.0 mg/kg/injection, schedule: Q01DX Z (sc), vehicle: methylcellulose (MC).

Structures are written as SMILES. Values joined by “and” are separate entries in the source; they are usually repeats but may differ in a detail not shown here. Equal values may be shown once. Toxic doses and inconclusive results are not listed.

`CS(=O)(=O)Nc1ccc(Nc2c3ccccc3nc3cc([N+](=O)[O-])ccc23)cc1`: the T/C (endpoint: mean survival time, dose: 1.25 mg/kg/injection, schedule: Q01DX009 (ip), vehicle: Klucel (hydroxypropylcellulose) (HPC)) was 108 % of control; the T/C (endpoint: mean survival time, dose: 1.25 mg/kg/injection, schedule: Q01DX009 (sc), vehicle: Klucel (hydroxypropylcellulose) (HPC)) was 121 % of control; the T/C (endpoint: mean survival time, dose: 2.5 mg/kg/injection, schedule: Q01DX009 (ip), vehicle: Klucel (hydroxypropylcellulose) (HPC)) was 107 % of control; the T/C (endpoint: mean survival time, dose: 2.5 mg/kg/injection, schedule: Q01DX009 (sc), vehicle: Klucel (hydroxypropylcellulose) (HPC)) was 108 % of control; the T/C (endpoint: mean survival time, dose: 5.0 mg/kg/injection, schedule: Q01DX009 (ip), vehicle: Klucel (hydroxypropylcellulose) (HPC)) is 106 % of control; the T/C (endpoint: mean survival time, dose: 5.0 mg/kg/injection, schedule: Q01DX009 (sc), vehicle: Klucel (hydroxypropylcellulose) (HPC)) was 112 % of control.
Consider `CN(N=O)C(=O)N[C@@H](C=O)[C@@H](O)[C@H](O)[C@H](O)CO`, for which the T/C (endpoint: median survival time, dose: 25.0 mg/kg/injection, schedule: Q01DX009 (sc), vehicle: other) is 123 % of control.
With `NC(Cc1ccc(N(CCCl)CCCl)cc1)C(=O)O` (stereo not given), the T/C was 100 % of control (endpoint: median survival time, dose: 1.09 mg/kg/injection, schedule: Q01DX Z (sc), vehicle: water); 100 % of control (endpoint: median survival time, dose: 1.81 mg/kg/injection, schedule: Q01DX Z (sc), vehicle: water); 100 % of control under setting [1]; 95 % of control (endpoint: median survival time, dose: 3.02 mg/kg/injection, schedule: Q01DX Z (sc), vehicle: water); 111 % of control under setting [2]; 100 % of control (endpoint: median survival time, dose: 5.04 mg/kg/injection, schedule: Q01DX Z (sc), vehicle: water). Also, the T/C by setting is: (endpoint: median survival time, dose: 8.4 mg/kg/injection, schedule: Q01DX Z (sc), vehicle: water) 100 % of control; under setting [3], 155 % of control; under setting [4], 122 % of control; (endpoint: median survival time, dose: 39.0 mg/kg/injection, schedule: Q01DX Z (sc), vehicle: saline) 122 % of control; (endpoint: median survival time, dose: 65.0 mg/kg/injection, schedule: Q01DX Z (sc), vehicle: saline) 122 % of control; (endpoint: median survival time, dose: 108.0 mg/kg/injection, schedule: Q01DX Z (sc), vehicle: saline) 111 % of control.
For the compound `O=C(Nc1ccc(C2=NCCN2)cc1)c1ccc(NC(=O)c2ccc(C3=NCCN3)cc2)cc1`, the T/C runs as follows: under setting [5], 95 % of control; under setting [6], 115 % of control; under setting [7], 110 % of control.
Consider `CCCCNc1ncnc2c1cnn2C`, for which the T/C runs as follows: (endpoint: median survival time, dose: 23.3 mg/kg/injection, schedule: Q01DX Z (sc), vehicle: methylcellulose (MC)) 105 % of control; (endpoint: median survival time, dose: 38.9 mg/kg/injection, schedule: Q01DX Z (sc), vehicle: methylcellulose (MC)) 110 % of control; (endpoint: median survival time, dose: 64.8 mg/kg/injection, schedule: Q01DX Z (sc), vehicle: methylcellulose (MC)) 110 % of control; under setting [8], 110 % of control; under setting [6], 100 % of control.
`COc1ccc(/C=N/NC(N)=S)cc1`: the T/C is, setting by setting: under setting [5], 95 % of control; (endpoint: median survival time, dose: 39.0 mg/kg/injection, schedule: Q01DX Z (sc), vehicle: water) 100 % of control; under setting [9], 100 % of control; (endpoint: median survival time, dose: 65.0 mg/kg/injection, schedule: Q01DX Z (sc), vehicle: water) 100 % of control; under setting [8], 100 % of control; (endpoint: median survival time, dose: 108.0 mg/kg/injection, schedule: Q01DX Z (sc), vehicle: water) 100 % of control. For the same compound, the T/C is 95 % of control under setting [6]; 100 % of control (endpoint: median survival time, dose: 180.0 mg/kg/injection, schedule: Q01DX Z (sc), vehicle: water); 100 % of control (endpoint: median survival time, dose: 216.0 mg/kg/injection, schedule: Q01DX Z (sc), vehicle: water); 100 % of control under setting [7]; 100 % of control (endpoint: median survival time, dose: 300.0 mg/kg/injection, schedule: Q01DX Z (sc), vehicle: water); 111 % of control (endpoint: median survival time, dose: 360.0 mg/kg/injection, schedule: Q01DX Z (sc), vehicle: water). Further, the T/C is 100 % of control under setting [10]; 100 % of control (endpoint: median survival time, dose: 500.0 mg/kg/injection, schedule: Q01DX Z (sc), vehicle: water); 105 % of control (endpoint: median survival time, dose: 600.0 mg/kg/injection, schedule: Q01DX Z (sc), vehicle: water); 111 % of control (endpoint: median survival time, dose: 1000.0 mg/kg/injection, schedule: Q01DX Z (sc), vehicle: water).
As to `NC(=O)N(CCCl)N=O`, the T/C reads like this: (endpoint: median survival time, dose: 0.39 mg/kg/injection, schedule: Q01DX Z (sc), vehicle: methylcellulose (MC)) 123 % of control; (endpoint: median survival time, dose: 0.65 mg/kg/injection, schedule: Q01DX Z (sc), vehicle: methylcellulose (MC)) 123 % of control; (endpoint: median survival time, dose: 0.65 mg/kg/injection, schedule: Q01DX Z (sc), vehicle: saline) 168 % of control; (endpoint: median survival time, dose: 1.08 mg/kg/injection, schedule: Q01DX Z (sc), vehicle: methylcellulose (MC)) 247 % of control; (endpoint: median survival time, dose: 1.08 mg/kg/injection, schedule: Q01DX Z (sc), vehicle: saline) 273 % of control; (endpoint: median survival time, dose: 1.8 mg/kg/injection, schedule: Q01DX Z (sc), vehicle: methylcellulose (MC)) 300 % of control. For the same compound, the T/C runs as follows: (endpoint: median survival time, dose: 1.8 mg/kg/injection, schedule: Q01DX Z (sc), vehicle: saline) 420 % of control and 526 % of control; (endpoint: median survival time, dose: 3.0 mg/kg/injection, schedule: Q01DX Z (sc), vehicle: methylcellulose (MC)) 309 % of control; under setting [1], 365 % of control and 463 % of control; (endpoint: median survival time, dose: 5.0 mg/kg/injection, schedule: Q01DX001 (sc), vehicle: saline) 157 % of control; under setting [2], 270 % of control and 310 % of control; (endpoint: median survival time, dose: 5.0 mg/kg/injection, schedule: Q07DX Z (sc), vehicle: saline) 200 % of control. Further, the T/C is, setting by setting: (endpoint: median survival time, dose: 8.4 mg/kg/injection, schedule: Q01DX001 (sc), vehicle: saline) 178 % of control; (endpoint: median survival time, dose: 8.4 mg/kg/injection, schedule: Q01DX Z (sc), vehicle: saline) 170 % of control; (endpoint: median survival time, dose: 8.4 mg/kg/injection, schedule: Q07DX Z (sc), vehicle: saline) 289 % of control; (endpoint: median survival time, dose: 14.0 mg/kg/injection, schedule: Q01DX001 (sc), vehicle: saline) 178 % of control; under setting [3], 120 % of control; (endpoint: median survival time, dose: 14.0 mg/kg/injection, schedule: Q07DX Z (sc), vehicle: saline) 257 % of control. For the same compound, the T/C reads like this: under setting [4], 110 % of control; (endpoint: median survival time, dose: 23.0 mg/kg/injection, schedule: Q07DX Z (sc), vehicle: saline) 152 % of control.
For `C=C(C)c1ccc(/C=N/NC(N)=S)cc1`, the T/C runs as follows: under setting [5], 109 % of control; under setting [9], 109 % of control; under setting [8], 109 % of control; under setting [6], 109 % of control; under setting [7], 113 % of control; under setting [10], 109 % of control.
Regarding `CS(=O)(=O)Nc1ccc(Nc2c3ccccc3nc3ccccc23)cc1`, the T/C runs as follows: (endpoint: mean survival time, dose: 10.0 mg/kg/injection, schedule: Q01DX009 (ip), vehicle: saline) 96 % of control; (endpoint: mean survival time, dose: 20.0 mg/kg/injection, schedule: Q01DX009 (ip), vehicle: saline) 103 % of control; (endpoint: mean survival time, dose: 40.0 mg/kg/injection, schedule: Q01DX009 (ip), vehicle: saline) 111 % of control; (endpoint: mean survival time, dose: 80.0 mg/kg/injection, schedule: Q01DX009 (ip), vehicle: saline) 90 % of control.
`ClCCN(CCCl)c1ccc(CCNc2ccnc3cc(Cl)ccc23)cc1`: the T/C (endpoint: median survival time, dose: 14.0 mg/kg/injection, schedule: Q01DX Z (sc), vehicle: methylcellulose (MC)) is 100 % of control and the T/C under setting [9] is 100 % of control.

(Values after PubChem BioAssay AID250 (DTP/NCI, 2004).)
